{"source": "patent US20240217977A1", "about": "“DIAZEPANONE-FUSED PYRIMIDINE COMPOUNDS, COMPOSITIONS AND MEDICINAL APPLICATIONS THEREOF” (Blueprint Medicines Corporation, priority 2021, published 2024)", "assay_type_in_all_cases": "cell-based", "key": {"[1]": {"molecular_target": "EGFR (A767_dupASV) expressing Ba/F3 stable cell line (Homo sapiens, UniProt P00533, DUP767-769, cells depend on it)", "sequence (P00533 with tags, fused parts or gaps DUP767-769)": "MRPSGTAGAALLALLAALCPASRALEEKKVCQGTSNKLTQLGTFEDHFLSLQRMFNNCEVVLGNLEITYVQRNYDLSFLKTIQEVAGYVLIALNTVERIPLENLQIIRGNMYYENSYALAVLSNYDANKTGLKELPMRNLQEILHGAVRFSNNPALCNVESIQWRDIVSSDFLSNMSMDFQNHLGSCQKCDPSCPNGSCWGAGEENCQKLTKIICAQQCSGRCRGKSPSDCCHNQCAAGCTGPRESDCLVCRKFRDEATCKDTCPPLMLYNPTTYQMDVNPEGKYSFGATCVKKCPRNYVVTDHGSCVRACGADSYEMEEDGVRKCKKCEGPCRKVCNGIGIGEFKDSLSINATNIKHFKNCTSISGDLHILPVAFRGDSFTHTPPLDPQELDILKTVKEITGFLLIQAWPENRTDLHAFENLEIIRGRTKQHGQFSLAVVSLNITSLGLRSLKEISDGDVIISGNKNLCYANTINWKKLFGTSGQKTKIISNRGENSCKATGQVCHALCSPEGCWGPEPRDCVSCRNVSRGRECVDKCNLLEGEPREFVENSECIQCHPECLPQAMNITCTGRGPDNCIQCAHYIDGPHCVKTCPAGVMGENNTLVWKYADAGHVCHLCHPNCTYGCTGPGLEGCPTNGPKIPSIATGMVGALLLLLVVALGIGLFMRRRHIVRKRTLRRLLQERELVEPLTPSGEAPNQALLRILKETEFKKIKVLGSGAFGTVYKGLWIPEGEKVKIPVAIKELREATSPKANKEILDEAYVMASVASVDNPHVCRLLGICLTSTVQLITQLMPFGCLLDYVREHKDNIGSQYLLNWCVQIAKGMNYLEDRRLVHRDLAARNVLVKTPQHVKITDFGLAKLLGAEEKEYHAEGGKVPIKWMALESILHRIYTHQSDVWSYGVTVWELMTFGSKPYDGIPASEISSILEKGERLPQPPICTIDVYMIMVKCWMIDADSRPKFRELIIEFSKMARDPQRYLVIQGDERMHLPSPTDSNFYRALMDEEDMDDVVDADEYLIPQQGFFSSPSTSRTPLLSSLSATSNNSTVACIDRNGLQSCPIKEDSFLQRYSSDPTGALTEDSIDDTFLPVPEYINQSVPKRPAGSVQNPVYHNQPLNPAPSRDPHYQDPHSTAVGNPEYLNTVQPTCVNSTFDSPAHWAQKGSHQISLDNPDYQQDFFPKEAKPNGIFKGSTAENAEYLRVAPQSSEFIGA", "test": "Cellular proliferation (Alamar Blue) assay, EGFR (A767_dupASV) Ba/F3", "conditions": "72 hr incubation, read-out: A767 IC50", "procedure,_shortened": "(§1)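 Ba/F3 lines stably expressing the mutant EGFR or HER2 (RPMI/10% FBS) and A431 cells (DMEM/10% FBS) were seeded and exposed for 72 h at 37° C to compound, final range 10-0.0005 μM in 3-fold dilutions. Proliferation was read by Alamar Blue fluorescence (540/590 nm) after 3 h.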"}, "[2]": {"molecular_target": "EGFR(D770_N771insSVD) expressing Ba/F3 stable cell line (Homo sapiens, UniProt P00533, DUP768-770, cells depend on it)", "sequence (P00533 with tags, fused parts or gaps DUP768-770)": "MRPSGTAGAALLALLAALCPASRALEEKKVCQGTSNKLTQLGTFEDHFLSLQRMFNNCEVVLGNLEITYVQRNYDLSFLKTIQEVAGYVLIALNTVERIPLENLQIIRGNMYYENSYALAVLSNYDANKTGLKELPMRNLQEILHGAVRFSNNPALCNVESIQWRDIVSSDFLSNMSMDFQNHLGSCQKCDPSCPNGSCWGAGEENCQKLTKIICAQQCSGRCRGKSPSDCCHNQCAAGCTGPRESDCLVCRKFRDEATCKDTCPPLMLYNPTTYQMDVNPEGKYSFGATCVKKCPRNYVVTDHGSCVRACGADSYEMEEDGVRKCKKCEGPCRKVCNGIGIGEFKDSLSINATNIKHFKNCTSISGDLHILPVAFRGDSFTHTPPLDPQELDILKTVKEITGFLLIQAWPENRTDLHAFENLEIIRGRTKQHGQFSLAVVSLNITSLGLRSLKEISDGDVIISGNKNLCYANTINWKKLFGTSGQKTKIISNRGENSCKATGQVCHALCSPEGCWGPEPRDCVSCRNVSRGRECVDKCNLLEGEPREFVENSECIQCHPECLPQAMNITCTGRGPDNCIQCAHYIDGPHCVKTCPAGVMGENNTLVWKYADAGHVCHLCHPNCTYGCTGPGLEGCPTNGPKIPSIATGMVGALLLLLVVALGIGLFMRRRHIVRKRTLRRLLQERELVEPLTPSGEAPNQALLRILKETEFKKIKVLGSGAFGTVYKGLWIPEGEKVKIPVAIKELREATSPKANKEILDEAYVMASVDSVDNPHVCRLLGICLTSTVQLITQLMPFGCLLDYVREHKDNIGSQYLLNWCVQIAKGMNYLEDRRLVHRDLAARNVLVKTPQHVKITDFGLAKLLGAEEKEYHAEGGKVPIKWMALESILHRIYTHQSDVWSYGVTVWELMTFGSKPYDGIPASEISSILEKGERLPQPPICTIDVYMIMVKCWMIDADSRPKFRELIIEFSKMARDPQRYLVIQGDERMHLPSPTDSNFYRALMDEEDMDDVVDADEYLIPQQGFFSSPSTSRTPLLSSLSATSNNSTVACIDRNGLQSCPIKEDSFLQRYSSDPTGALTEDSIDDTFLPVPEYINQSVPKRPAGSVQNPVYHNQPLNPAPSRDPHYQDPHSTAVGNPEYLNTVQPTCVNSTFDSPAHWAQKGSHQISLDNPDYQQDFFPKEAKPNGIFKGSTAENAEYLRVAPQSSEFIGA", "test": "Cellular proliferation (Alamar Blue) assay, EGFR(D770_N771insSVD) Ba/F3", "conditions": "72 hr incubation, read-out: D770 IC50", "procedure,_shortened": "as §1"}, "[3]": {"molecular_target": "EGFR (H773insNPH) expressing Ba/F3 stable cell line (Homo sapiens, UniProt P00533, DUP771-773, cells depend on it)", "sequence (P00533 with tags, fused parts or gaps DUP771-773)": "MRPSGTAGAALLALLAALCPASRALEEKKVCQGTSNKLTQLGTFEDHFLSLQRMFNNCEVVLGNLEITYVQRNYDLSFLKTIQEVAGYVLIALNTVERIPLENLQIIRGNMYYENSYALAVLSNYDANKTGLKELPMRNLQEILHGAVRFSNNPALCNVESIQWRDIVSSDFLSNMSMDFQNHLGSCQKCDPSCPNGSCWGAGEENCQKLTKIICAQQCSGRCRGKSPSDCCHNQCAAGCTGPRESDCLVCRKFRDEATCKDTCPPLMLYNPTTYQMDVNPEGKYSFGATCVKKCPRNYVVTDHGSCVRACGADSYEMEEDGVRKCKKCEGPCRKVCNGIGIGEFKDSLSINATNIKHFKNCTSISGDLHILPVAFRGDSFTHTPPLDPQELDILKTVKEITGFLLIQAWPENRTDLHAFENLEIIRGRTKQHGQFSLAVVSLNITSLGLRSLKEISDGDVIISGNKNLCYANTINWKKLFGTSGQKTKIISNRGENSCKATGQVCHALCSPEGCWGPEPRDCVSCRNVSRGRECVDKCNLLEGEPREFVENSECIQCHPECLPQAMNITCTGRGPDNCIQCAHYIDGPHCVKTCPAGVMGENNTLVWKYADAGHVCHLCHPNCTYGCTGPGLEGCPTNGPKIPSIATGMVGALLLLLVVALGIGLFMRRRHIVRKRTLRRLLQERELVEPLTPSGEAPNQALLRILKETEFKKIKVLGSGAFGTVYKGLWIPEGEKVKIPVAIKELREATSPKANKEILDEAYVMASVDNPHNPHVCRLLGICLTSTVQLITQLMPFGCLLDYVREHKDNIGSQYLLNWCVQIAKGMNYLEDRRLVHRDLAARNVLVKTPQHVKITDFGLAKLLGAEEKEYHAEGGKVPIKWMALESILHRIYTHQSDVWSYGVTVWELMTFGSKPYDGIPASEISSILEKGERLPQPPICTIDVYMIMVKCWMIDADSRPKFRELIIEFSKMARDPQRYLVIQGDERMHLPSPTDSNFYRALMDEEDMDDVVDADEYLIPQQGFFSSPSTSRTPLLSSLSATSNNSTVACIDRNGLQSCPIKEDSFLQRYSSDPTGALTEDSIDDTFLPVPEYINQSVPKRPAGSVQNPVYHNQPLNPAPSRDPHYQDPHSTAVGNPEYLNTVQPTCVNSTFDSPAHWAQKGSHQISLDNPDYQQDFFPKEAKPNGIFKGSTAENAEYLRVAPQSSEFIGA", "test": "Cellular proliferation (Alamar Blue) assay, EGFR (H773insNPH) Ba/F3", "conditions": "72 hr incubation, read-out: NPH IC50", "method": "Example 2: Cellular Proliferation (Alamar Blue) Assays\n• 1. EGFR(D770_N771insSVD) expressing Ba/F3 stable cell line • 2. EGFR (A767_dupASV) expressing Ba/F3 stable cell line • 3. A431 cells • 4. EGFR (H773insNPH) expressing Ba/F3 stable cell line • 5. HER2 (A775_G775insYVMA) expressing Ba/F3 stable cell line\n• 1. Seed cells at 5000 for A431 and 15,000 cells for Ba/F3 in 100 μL/well in complete media (for A431: DMEM with 10% FBS and for Ba/F3 cells: RPMI with 10% FBS) in • 96-well tissue culture plate. Leave outer wells without cells for background measurements. Incubate at 37 degree Celsius in 5% C02 humidified incubator for 16-18 hours. • 2. Add 0.025 ml of 5× concentration compound dilution or DMSO control. Final compound concentration range is 10-0.0005 μM prepared in 3-fold serial dilutions. Incubate for 72 hr at 37 degree Celsius in 5% CO2 humidified incubator. • 3. Add 0.0125 ml Alamar Blue™ reagent to each well with multi-channel pipette and tap gently on each side of the plate to mix. Incubate for 3 hours at 37 degree Celsius in 5% CO2 humidified incubator. • 4. Read plates on fluorescence reader (Tecan Spark Control, Device: Spark, Serial #: 1801006040) at 540 nm excitation, 590 nm emission wavelength. • 5. Data analysis was performed using XLfit 5.5.0.5."}, "A431 cells": {"tested_on": "A431 cells", "test": "Cellular proliferation (Alamar Blue) assay, A431 cells", "conditions": "Homo sapiens, A-431, 72 hr incubation", "procedure,_shortened": "as §1"}, "[4]": {"molecular_target": "HER2 (A775_G775insYVMA) expressing Ba/F3 stable cell line (Homo sapiens, UniProt P04626, DUP772-775, cells depend on it)", "sequence (P04626 with tags, fused parts or gaps DUP772-775)": "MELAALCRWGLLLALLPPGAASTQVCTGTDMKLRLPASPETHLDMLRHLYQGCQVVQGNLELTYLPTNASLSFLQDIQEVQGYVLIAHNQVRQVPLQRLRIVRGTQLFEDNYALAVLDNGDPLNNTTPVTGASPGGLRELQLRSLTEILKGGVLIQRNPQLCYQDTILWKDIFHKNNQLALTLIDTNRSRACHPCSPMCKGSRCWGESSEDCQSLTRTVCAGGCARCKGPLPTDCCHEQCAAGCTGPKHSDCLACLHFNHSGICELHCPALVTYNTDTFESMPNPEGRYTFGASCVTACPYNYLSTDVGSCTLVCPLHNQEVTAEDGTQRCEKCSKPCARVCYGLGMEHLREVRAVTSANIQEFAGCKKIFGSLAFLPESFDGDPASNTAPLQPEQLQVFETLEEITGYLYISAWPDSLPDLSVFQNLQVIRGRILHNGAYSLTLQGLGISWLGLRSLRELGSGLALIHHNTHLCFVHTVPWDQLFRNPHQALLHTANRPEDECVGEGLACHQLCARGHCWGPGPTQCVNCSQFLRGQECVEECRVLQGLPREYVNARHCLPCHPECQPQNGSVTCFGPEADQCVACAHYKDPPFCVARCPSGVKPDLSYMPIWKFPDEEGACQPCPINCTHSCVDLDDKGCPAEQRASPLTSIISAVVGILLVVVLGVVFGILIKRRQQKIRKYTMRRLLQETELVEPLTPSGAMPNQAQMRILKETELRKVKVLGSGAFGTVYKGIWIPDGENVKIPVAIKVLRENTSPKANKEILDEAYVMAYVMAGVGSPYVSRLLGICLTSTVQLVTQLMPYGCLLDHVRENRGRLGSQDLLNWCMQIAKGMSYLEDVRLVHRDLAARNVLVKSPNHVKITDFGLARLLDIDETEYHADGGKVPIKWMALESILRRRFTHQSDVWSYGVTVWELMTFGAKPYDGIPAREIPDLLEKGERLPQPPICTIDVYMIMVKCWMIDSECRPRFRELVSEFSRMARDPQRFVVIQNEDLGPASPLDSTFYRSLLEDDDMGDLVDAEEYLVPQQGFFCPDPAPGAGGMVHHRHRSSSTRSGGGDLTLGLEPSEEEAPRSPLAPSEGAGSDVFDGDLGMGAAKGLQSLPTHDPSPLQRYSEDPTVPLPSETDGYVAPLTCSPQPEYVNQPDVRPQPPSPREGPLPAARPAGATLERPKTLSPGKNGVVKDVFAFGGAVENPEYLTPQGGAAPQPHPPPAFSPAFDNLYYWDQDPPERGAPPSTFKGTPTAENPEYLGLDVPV", "test": "Cellular proliferation (Alamar Blue) assay, HER2 (A775_G775insYVMA) Ba/F3", "conditions": "72 hr incubation, read-out: YVMA IC50", "procedure,_shortened": "as §1"}}}
{"smiles": "C=CC(=O)Nc1cccc(N2C(=O)N(Cc3ccccc3)CCc3cnc(Nc4ccc(F)c(C)c4)nc32)c1", "note": "[Compound 9, N-(3-(7-benzyl-2-((4-fluoro-3-methylphenyl)amino)-8-oxo-5,6,7,8-tetrahydro-9H-pyrimido[4,5-d][1,3]diazepin-9-yl)phenyl)acrylamide]", "values": [{"measurement": "GI50", "setting": "[1]", "value": 46, "unit": "nM"}, {"measurement": "GI50", "setting": "[2]", "value": 45, "unit": "nM"}, {"measurement": "GI50", "setting": "[3]", "value": 95, "unit": "nM"}, {"measurement": "IC50", "setting": "A431 cells", "value": 35, "unit": "nM"}, {"measurement": "GI50", "setting": "[4]", "value": 28, "unit": "nM"}]}
{"smiles": "Cn1cc(Nc2ncc3c(n2)N(c2cccc(NC(=O)/C=C/CN4CCCCC4)c2)C(=O)N(Cc2ccccc2)CC3)c(Cl)n1", "note": "[Compound 3, (E)-N-(3-(7-benzyl-2-((3-chloro-1-methyl-1H-pyrazol-4-yl)amino)-8-oxo-5,6,7,8-tetrahydro-9H-pyrimido[4,5-d][1,3]diazepin-9-yl)phenyl)-4-(piperidin-1-yl)but-2-enamide]", "values": [{"measurement": "GI50", "setting": "[1]", "value": 42, "unit": "nM"}, {"measurement": "GI50", "setting": "[2]", "value": 48, "unit": "nM"}, {"measurement": "GI50", "setting": "[3]", "value": 108, "unit": "nM"}, {"measurement": "IC50", "setting": "A431 cells", "value": "> 10000", "unit": "nM"}, {"measurement": "GI50", "setting": "[4]", "value": 31, "unit": "nM"}]}
{"smiles": "C=CC(=O)Nc1cccc(N2C(=O)N(c3ccccc3)CCc3cnc(Nc4ccc(N5CCN(C)CC5)cc4OC)nc32)c1", "note": "[Compound 39, N-(3-(2-((2-methoxy-4-(4-methylpiperazin-1-yl)phenyl)amino)-8-oxo-7-phenyl-5,6,7,8-tetrahydro-9H-pyrimido[4,5-d][1,3]diazepin-9-yl)phenyl)acrylamide]", "values": [{"measurement": "GI50", "setting": "[1]", "value": 39, "unit": "nM"}, {"measurement": "GI50", "setting": "[2]", "value": 92, "unit": "nM"}, {"measurement": "GI50", "setting": "[3]", "value": 88, "unit": "nM"}, {"measurement": "IC50", "setting": "A431 cells", "value": 7, "unit": "nM"}, {"measurement": "GI50", "setting": "[4]", "value": 131, "unit": "nM"}]}
